Values after ≈ are worked out from the molar mass of the structure shown. Read-outs that look alike come from different tables or passages of the source.
What was measured:
E. coli topoisomerase IV = molecular target: T1, E. coli topoisomerase IV (Escherichia coli, UniProt P20083); assay: Test for evaluating the activity of inhibiting E. coli topoisomerase IV enzyme (relaxation); format: biochemical
T1 construct: purchased Inspiralis
Procedure: The enzymatic activity of E. coli topoisomerase IV was measured by a method comprising reacting topoisomerase IV and its substrate, supercoiled pBR322 (Inspiralis), in the presence of ATP and detecting the post-reaction supercoiled pBR322/relaxed pBR322 ratio with H19.
Specifically, to 2 ng/μL of supercoiled pBR322, E. coli topoisomerase IV enzyme (Inspiralis) was added at a final concentration of 0.0075 U/μL and the mixture was incubated for 30 minutes at room temperature. This reaction was carried out in 20 mmol/L tris-HCl buffered solution (pH 8.0) comprising 0.5 mmol/L ATP, 0.005% bridge 35, 35 mmol/L ammonium acetate, 8 mmol/L magnesium chloride, 4.6% glycerol, and 1 mmol/L dithiothreitol. To the reaction mixture, H19 was added to bring the reaction to an end; thereafter, the supercoiled pBR322/relaxed pBR322 ratio was detected at excitation wavelength/emission wavelength=485 nm/535 nm. An inhibition curve was obtained by allowing the analyte compound to be present at varying concentrations during the reaction described above.

E. Coli ATCC 25922 = assay: Test for evaluating antibacterial activity (E. coli), broth microdilution MIC; format: cell-based; settings: Escherichia coli, ATCC25922; 35° C., 18 hours, cation-adjusted Mueller-Hinton medium
Outline: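 Broth microdilution per modified CLSI method in cation-adjusted Mueller-Hinton medium. Inoculum from overnight heart infusion agar growth, McFarland 0.5 suspension diluted 10-fold; incubation 35° C for 18 hours. MIC taken as lowest drug concentration with no visible growth.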

[1] = tested on: N. gonorrhoeae ATCC 49226; assay: Test for evaluating antibacterial activity (N. gonorrhoeae), broth microdilution MIC; format: cell-based; settings: Neisseria gonorrhoeae, ATCC49226; 35° C., 24 hours, gonococcal broth
Outline: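 Broth microdilution in gonococcal broth with 1% supplement C, inoculum from overnight chocolate II agar culture at McFarland 0.5 diluted 5-fold.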

E. coli DNA gyrase [2] = molecular target: T2, E. coli DNA gyrase (Escherichia coli, UniProt P0AES6); assay: Test for evaluating the activity of inhibiting E. coli DNA gyrase enzyme (Method 2, supercoiling, recombinant gyrA/gyrB complex); format: biochemical
T2 construct: made in house; host or cells: E. coli BL21 (DE3)
Outline: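 Recombinant E. coli gyrA/gyrB complex (His-tagged, BL21(DE3)-expressed, Ni-NTA purified; 0.135 nmol/mL final) supercoiled relaxed pBR322 (1 ng/μL) with 0.5 mmol/L ATP in pH 8.0 Tris buffer, 60 min at room temperature. H19 stopped the reaction; supercoiled/relaxed ratio read at 485/535 nm, inhibition curves built from varying compound concentrations.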

E. coli DNA gyrase [3] = molecular target: T2, E. coli DNA gyrase; assay: Test for evaluating the activity of inhibiting E. coli DNA gyrase enzyme (Method 1, supercoiling, Inspiralis enzyme); format: biochemical
Outline: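 Relaxed pBR322 (1 ng/μL) supercoiled by E. coli gyrase (0.006 U/μL final) with 0.5 mmol/L ATP in 20 mmol/L Tris-HCl pH 8.0, 8 mmol/L MgCl2, 35 mmol/L ammonium acetate, 60 min, room temperature. Stopped with H19; supercoiled/relaxed ratio read at 485/535 nm; inhibition curve across compound concentrations.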

[4] = read-out: E. Coli TopoIV relaxation IC50
[5] = Method 2, read-out: E. Coli Gyrase supercoiling IC50
[6] = Method 1, read-out: E. Coli Gyrase supercoiling IC50

T1 sequence (P20083 whole entry): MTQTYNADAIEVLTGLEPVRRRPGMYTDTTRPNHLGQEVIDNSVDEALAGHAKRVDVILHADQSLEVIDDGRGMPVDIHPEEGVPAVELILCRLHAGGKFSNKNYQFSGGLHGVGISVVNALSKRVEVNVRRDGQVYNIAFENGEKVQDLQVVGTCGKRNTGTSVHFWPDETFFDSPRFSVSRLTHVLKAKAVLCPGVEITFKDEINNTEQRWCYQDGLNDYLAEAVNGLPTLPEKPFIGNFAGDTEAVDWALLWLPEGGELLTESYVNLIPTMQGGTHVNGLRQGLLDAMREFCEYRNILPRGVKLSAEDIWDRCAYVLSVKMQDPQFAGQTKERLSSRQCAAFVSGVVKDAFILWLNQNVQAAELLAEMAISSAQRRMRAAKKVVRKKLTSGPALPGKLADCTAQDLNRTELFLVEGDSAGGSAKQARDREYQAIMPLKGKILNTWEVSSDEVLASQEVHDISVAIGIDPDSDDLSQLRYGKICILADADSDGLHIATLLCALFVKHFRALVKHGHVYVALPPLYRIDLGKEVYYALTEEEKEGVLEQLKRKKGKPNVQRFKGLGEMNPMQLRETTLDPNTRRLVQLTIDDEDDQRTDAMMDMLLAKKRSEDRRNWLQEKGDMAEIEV
T1 sequence (P0AFI2 whole entry, further chain): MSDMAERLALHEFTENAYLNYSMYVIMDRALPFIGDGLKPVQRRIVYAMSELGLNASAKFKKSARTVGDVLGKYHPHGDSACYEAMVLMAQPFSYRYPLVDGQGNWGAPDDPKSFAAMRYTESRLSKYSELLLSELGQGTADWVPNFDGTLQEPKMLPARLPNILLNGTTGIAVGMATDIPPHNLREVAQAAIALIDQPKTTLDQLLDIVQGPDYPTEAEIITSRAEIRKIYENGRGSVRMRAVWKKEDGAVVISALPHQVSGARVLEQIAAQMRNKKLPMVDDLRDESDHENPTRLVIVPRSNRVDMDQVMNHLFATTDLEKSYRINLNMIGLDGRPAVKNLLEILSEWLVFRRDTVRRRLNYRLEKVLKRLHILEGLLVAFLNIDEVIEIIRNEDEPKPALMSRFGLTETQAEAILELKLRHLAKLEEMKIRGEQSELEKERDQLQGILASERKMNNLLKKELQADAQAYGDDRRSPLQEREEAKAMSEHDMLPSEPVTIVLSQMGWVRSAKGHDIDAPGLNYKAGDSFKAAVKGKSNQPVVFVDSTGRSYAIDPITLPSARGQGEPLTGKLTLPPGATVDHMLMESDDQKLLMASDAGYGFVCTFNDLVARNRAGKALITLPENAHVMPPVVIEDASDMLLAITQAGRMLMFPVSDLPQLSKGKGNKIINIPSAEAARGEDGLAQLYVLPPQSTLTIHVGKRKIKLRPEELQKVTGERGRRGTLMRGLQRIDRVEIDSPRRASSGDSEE

| Compound | IC50 (E. coli topoisomerase IV; [4]) [nM] | MIC (E. Coli ATCC 25922) [µg/mL] | MIC [1] [µg/mL] | IC50 (E. coli DNA gyrase [2]; [5]) [nM] | IC50 (E. coli DNA gyrase [2]) [nM] | IC50 (E. coli topoisomerase IV) [nM] | IC50 (E. coli DNA gyrase [3]; [6]) [nM] | IC50 (E. coli DNA gyrase [3]) [nM] |
| --- | --- | --- | --- | --- | --- | --- | --- | --- |
| CNc1cccc2cc(C(=O)Nc3ccc(C(=O)O)cc3)c(=O)[nH]c12 [Example 2, 4-{[8-(methylamino)-2-oxo-1,2-dihydroquinoline-3-carbonyl]amino} benzoic acid] | 980 | 64 (≈ 190 µM) | > 1 | – | – | – | – | – |
| CNc1cccc2cc(C(=O)NCCc3cccc(C(=O)O)c3)c(=O)[nH]c12 [Example 5, 3-(2-{[8-(methylamino)-2-oxo-1,2-dihydroquinoline-3-carbonyl]amino}ethyl)benzoic acid] | 17000 | > 64 | – | 9.75 | – | – | – | – |
| CNc1cc(F)cc2cc(C(=O)Nc3ccc(C(=O)O)cc3)c(=O)[nH]c12 [Example 33, 4-[[6-Fluoro-8-(methylamino)-2-oxo-1,2-dihydroquinoline-3-carbonyl]amino]benzoic Acid] | – | 16 (≈ 45 µM) | 0.004 (≈ 0.0113 µM) | – | 0.36 | 219 | – | – |
| CNc1cc(F)cc2cc(C(=O)Nc3ccc(C(=O)NCCN4CCOCC4)cc3)c(=O)[nH]c12 [Example 40, 6-Fluoro-8-(methylamino)-N-(4-[[2-(morpholin-4-yl)ethyl]carbamoyl]phenyl)-2-oxo-1,2-dihydroquinoline-3-carboxamide] | 1300 | 4 (≈ 8.56 µM) | – | 7.29 | – | – | – | – |
| CNc1cc(F)cc2cc(C(=O)Nc3ccccc3CN(C)C3CCCCC3)c(=O)[nH]c12 [Example 52, N-(2-{[cyclohexyl(methyl)amino]methyl}phenyl)-6-fluoro-8-(methylamino)-2-oxo-1,2-dihydroquinoline-3-carboxamide] | 519 | 16 (≈ 36.7 µM) | 0.5 (≈ 1.15 µM) | – | – | – | 2.47 | – |
| CNc1cc(F)cc2cc(C(=O)Nc3ccc(C(=O)O)c(O)c3)c(=O)[nH]c12 [Example 58, 4-{[6-fluoro-8-(methylamino)-2-oxo-1,2-dihydroquinoline-3-carbonyl]amino}-2-hydroxybenzoic acid] | – | > 32 | 0.12 (≈ 0.323 µM) | – | – | – | 2.05 | – |
| CNc1cc(F)cc2cc(C(=O)Nc3ccc(C(=O)O)c(OCCCN)c3)c(=O)[nH]c12.O=CO [Example 62, 2-(3-Aminopropoxy)-4-[[6-fluoro-8-(methylamino)-2-oxo-1,2-dihydroquinoline-3-carbonyl]amino]benzoic acid-formate] | – | > 16 | 2 | – | – | – | – | 0.92 |
| CNc1cc(F)cc2cc(C(=O)Nc3cnc(C(=O)O)nc3)c(=O)[nH]c12 [Example 65, 5-[[6-Fluoro-8-(methylamino)-2-oxo-1,2-dihydroquinoline-3-carbonyl]amino]pyrimidine-2-carboxylic Acid] | 32.5 | > 16 | 0.5 (≈ 1.4 µM) | – | – | – | 0.95 | – |
| CNc1cc(F)cc2cc(C(=O)NCCc3cccc(C(=O)O)c3)c(=O)[nH]c12 [Example 66, 3-(2-{[6-fluoro-8-(methylamino)-2-oxo-1,2-dihydroquinoline-3-carbonyl]amino}ethyl) benzoic acid] | – | > 32 | 0.25 (≈ 0.652 µM) | – | – | – | 0.95 | – |
| CNc1cc(F)cc2cc(C(=O)Nc3cccnc3)c(=O)[nH]c12 [Example 72, 6-fluoro-8-(methylamino)-2-oxo-N-(pyridine-3-yl)-1,2-dihydroquinoline-3-carboxamide] | – | > 4 | 0.12 (≈ 0.384 µM) | – | – | – | 8.03 | – |
| CNc1cc(F)cc2cc(C(=O)Nc3ccccc3)c(=O)[nH]c12 [Example 76, 6-fluoro-8-(methylamino)-2-oxo-N-phenyl-1,2-dihydroquinoline-3-carboxamide] | – | > 32 | 0.25 (≈ 0.803 µM) | – | – | – | 249 | – |
| CNc1cc(F)cc2cc(C(=O)OCc3ccncc3N)c(=O)[nH]c12 [Example 77, (3-aminopyridine-4-yl)methyl 6-fluoro-8-(methylamino)-2-oxo-1,2-dihydroquinoline-3-carboxylate] | – | > 16 | 1 (≈ 2.92 µM) | – | – | – | 24.3 | – |
| CNc1cc(F)cc2cc(C(=O)Nc3ccc(C(=O)O)cc3CN(C)C)c(=O)[nH]c12 [Example 85, 3-[(dimethylamino)methyl]-4-{[6-fluoro-8-(methylamino)-2-oxo-1,2-dihydroquinoline-3-carbonyl]amino} benzoic acid] | – | > 4 | 2 (≈ 4.85 µM) | – | 0.61 | 176 | – | – |
| CNc1cc(F)cc2cc(C(=O)Nc3ccc(C(=O)O)cc3CN3CCCCC3)c(=O)[nH]c12 [Example 96, 4-{[6-fluoro-8-(methylamino)-2-oxo-1,2-dihydroquinoline-3-carbonyl]amino}-3-[(piperidine-1-yl)methyl] benzoic acid] | – | 4 (≈ 8.84 µM) | 0.015 (≈ 0.0332 µM) | – | 0.31 | 15.3 | – | – |
| CCCCCN(C)Cc1cc(C(=O)O)ccc1NC(=O)c1cc2cc(F)cc(NC)c2[nH]c1=O [Example 98, 4-{[6-fluoro-8-(methylamino)-2-oxo-1,2-dihydroquinoine-3-carbonyl]amino}-3-{[methyl (pentyl)amino)methyl} benzoic acid] | – | 4 (≈ 8.54 µM) | 0.06 (≈ 0.128 µM) | – | 0.21 | 41.4 | – | – |
| CNc1cc(F)cc2cc(C(=O)Nc3ccc(C(=O)O)cc3CN(CCO)C3CCCCC3)c(=O)[nH]c12.Cl [Example 104, 3-{[cyclohexyl (2-hydroxyethyl)amino]methyl}-4-{[6-fluoro-8-(methylamino)-2-oxo-1,2-dihydroquinoline-3-carbonyl]amino} benzoic acid-hydrochloride] | – | 8 | 0.015 | – | 0.29 | 23.4 | – | – |
| CNc1cc(F)cc2cc(C(=O)Nc3ccc(C(=O)O)cc3CN(CC(=O)O)C3CCCCC3)c(=O)[nH]c12 [Example 107, 3-{[(carboxymethyl) (cyclohexyl)amino]methyl} -4-{[6-fluoro-8-(methylamino)-2-oxo-1,2-dihydroquinoline-3-carbonyl]amino} benzoic acid] | 76.3 | > 64 | 0.5 (≈ 0.953 µM) | 0.57 | – | – | – | – |
| CNc1cc(F)cc2c(O)c(C(=O)Nc3ccc(C(=O)O)cc3)c(=O)[nH]c12 [Example 117, 4-[[6-Fluoro-4-hydroxy-8-(methylamino)-2-oxo-1,2-dihydroquinoline-3-carbonyl]amino]benzoic Acid] | 62.9 | 1 (≈ 2.69 µM) | 0.0005 (≈ 0.00135 µM) | 1.1 | – | – | – | – |
| CNc1cc(F)cc2cc(C(=O)Nc3ccccc3CN(CCO)C3CCCCC3)c(=O)[nH]c12 [Example 123, N-(2-{[cyclohexyl(2-hydroxyethyl)amino]methyl}phenyl)-6-fluoro-8-(methylamino)-2-oxo-1,2-dihydroquinoline-3-carboxamide] | 615 | 8 (≈ 17.1 µM) | – | 3.59 | – | – | – | – |
| CNc1cc(F)cc2c(NCC3CCNC3)c(C(=O)Nc3ccc(C(=O)O)cc3)c(=O)[nH]c12.O=CO (stereo not drawn) [Example 133, 4-{[6-fluoro-8-(methylamino)-2-oxo-4-{[(pyrrolidine-3-yl)methyl]amino}-1,2-dihydroqunoline-3-carbonyl]amino}benzoic acid-formate] | – | > 16 | – | – | 0.82 | 160 | – | – |
| CNc1cc(F)cc2cc(C(=O)Nc3ccc(C(=O)NS(=O)(=O)N(C)C)cc3)c(=O)[nH]c12 [Example 146, N-{4-[(dimethylsulfamoyl)carbamoyl]phenyl}-6-fluoro-8-(methylamino)-2-oxo-1,2-dihydroquinoline-3-carboxamide] | 51.9 | 16 (≈ 34.7 µM) | 0.008 (≈ 0.0173 µM) | 0.43 | – | – | – | – |
| CNc1cc(F)cc2c(O)c(C(=O)Nc3ccc(C(=O)NS(=O)(=O)N(C)C)cc3)c(=O)[nH]c12 [Example 148, N-{4-[(dimethyl-sulfamoyl)carbamoyl]phenyl}-6-fluoro-4-hydroxy-8-(methylamino)-2-oxo-1,2-dihydroquinoline-3-carboxamide] | – | 1 (≈ 2.09 µM) | ≤ 0.0005 | – | 2.66 | 127 | – | – |
| CNc1cc(F)cc2c(O)c(C(=O)Nc3ccc(C(=O)O)cc3CN3CCCCC3)c(=O)[nH]c12.O=C(O)C(F)(F)F [Example 153, 4-{[6-fluoro-4-hydroxy-8-(methylamino)-2-oxo-1,2-dihydroquinoline-3-carbonyl]amino}-3-[(piperidine-1-yl)methyl]benzoic acid-trifluoroacetate] | – | 8 | 0.06 | – | 7.53 | 4930 | – | – |

Source: patent publication US20210070747A1, “2(1H)-QUINOLINONE DERIVATIVE” (priority 2017, published 2021)
